In patent publication US20110269825A1, “Modified Thromboxane A2 Receptor Promoter Sequence” (priority 2008, published 2011):

Tested on: HEL 92.1.7 cells
Assay: Dual luciferase genetic reporter assay of promoter-directed luciferase expression in HEL cells
Type: cell-based, human
Details: HEL; for Decrease in luciferase expression relative to Prm1HΔ (−6320): site-directed mutation within Prm1HΔ; for Increase in luciferase activity relative to Prm1 (−8500): 5′ deletion or site-directed mutation of Prm1; for Decrease in luciferase expression relative to Prm1B (−7962): 5′ deletion or site-directed mutation of Prm1B
Experimental: HEL and EA.hy 926 cells were co-transfected with the various pGL3Basic-recombinant plasmids (2 mg), encoding firefly luciferase, along with pRL-TK (200 ng), encoding renilla luciferase, using DMRIE-C® transfection reagent. HEK293, WI-38, and 1° hAoSMCs were co-transfected with the pGL3Basic-recombinant plasmids (2 mg), along with pRL-TK (200 ng), using Effectene transfection reagent. In all cases, cells co-transfected with pRL-TK (200 ng) in the presence of either the pGL3Control vector (firefly luciferase gene under the control of the SV40 promoter; 2 mg) or the promoter-less pGL3Basic empty vector (2 mg), which served as positive and negative controls, respectively. Firefly and renilla luciferase expression was assayed some 48 h post-transfection using the Dual-Luciferase Reporter Assay System™, as described (Coyle et al., 2005). Relative firefly to renilla luciferase activity (arbitrary units) was calculated as a ratio and was expressed in relative luciferase units (RLU). To investigate the effect of over-expression of exon 5 (+ or −) or KTS (+ or −) isoforms of WT1 on Prm1-directed gene expression, HEL cells were co-transfected with either pGL3b:Prm1 or pGL3b:Prm1D (1.5 μg) plus 200 ng of pRL-TK along with either pcDNA3:WT1 (+/+), pcDNA3:WT1 (+/−), pcDNA3:WT1 (−/+), pcDNA3:WT1 (−/−) (0.5 μg), or as a control, pcDNA3 (0.5 μg). Cells were harvested 48 h post-transfection and assayed for luciferase activity, as above, or subjected to western blot or RT-PCR analysis. The plasmids pcDNA3:WT1 (+/+), pcDNA3:WT1 (+/−), pcDNA3:WT1 (−/+) and pcDNA3:WT1 (−/−) were generously donated by Dr. Charles T. Roberts JR, Oregon National Primate Research Center, Oregon, USA and have been previously described (Tajinda et al., 1999). For PMA studies, approximately 32 h post-transfection, the medium was supplemented with PMA (100 nM), with PMA (100 nM) and PD98059 (10 μM) or, as a control, with vehicle [0.1% (v/v) DMSO]. After 16 h, cells were assayed for firefly and renilla luciferase using the Dual-Luciferase Reporter Assay System™ as previously described (Coyle et al., 2005). The plasmid pCMV5-NAB1, containing the entire coding sequence for NAB1, was generously donated by Dr. Gerald Thiel, University of Saarland Medical Center, Homburg, Germany, and has been described previously (Thiel et al., 2000). To investigate the effect of over-expression of NAB1 on the PMA-mediated induction of Prm1-directed gene expression, HEL cells were transiently co-transfected with pGL3b:Prm1 (2 μg) plus pRL-TK (200 ng) along with either pCMV5 (control) or pCMV:NAB1 (1 μg). Cells were harvested 48 h post-transfection and assayed for luciferase activity, as above.

For “Prm1HΔ^Sp1/Egr1(−6007)*: Prm1HΔ with Sp1/Egr1 element at −6007 mutated (SEQ ID NO:37) (DNA CCCTCGCAATACCCTCGG; expressed or natural sequence; listed as Homo sapiens)”, the “Decrease in luciferase expression relative to Prm1HΔ (−6320)” value was 1.5 fold.
In the case of “Prm1HΔ^Sp1/Egr1(−6278)*: Prm1HΔ with Sp1/Egr1 element at −6278 mutated (SEQ ID NO:27) (DNA CGCAGGGTGTATGGGGCTG; expressed or natural sequence; listed as Homo sapiens)”, the “Decrease in luciferase expression relative to Prm1HΔ (−6320)” value is reported as “reduced luciferase activity”.
With “Prm1^GC*^(−8281): Prm1 with GC element at −8281 mutated (SEQ ID NO:11) (DNA GCCCGGTTCCCGCCGGA; expressed or natural sequence; listed as Homo sapiens)” the “Increase in luciferase activity relative to Prm1 (−8500)” value was 1.9 fold.
In the case of “Prm1HΔ^Sp1/Egr1(−6022)*: Prm1HΔ with Sp1/Egr1 element at −6022 mutated (SEQ ID NO:35) (DNA TCTGCCCTAACCCAGCCCT; expressed or natural sequence; listed as Homo sapiens)”, the “Decrease in luciferase expression relative to Prm1HΔ (−6320)” value is reported as 1.8 fold.
With “Prm1HΔ^NF-E2/AP1(−6080)*: Prm1HΔ with NF-E2/AP1 element at −6080 mutated (SEQ ID NO:33) (DNA CCAGACACACTCAGTTTCCCT; expressed or natural sequence; listed as Homo sapiens)” the “Decrease in luciferase expression relative to Prm1HΔ (−6320)” value was “reduced luciferase activity”.
For “Prm1B^GATA(−7890)*: Prm1B with GATA element at −7890 mutated (SEQ ID NO:17) (DNA CTTGGTAGCTCAG; expressed or natural sequence; listed as Homo sapiens)”, the “Decrease in luciferase expression relative to Prm1B (−7962)” value was 1.8 fold.
With “Prm1BΔGata/Ets^Ets(−7805)*: Prm1BΔGata/Ets with Ets element at −7805 mutated (SEQ ID NO:21) (DNA GCCCCACATCACCCTCC; expressed or natural sequence; listed as Homo sapiens)” the “Luciferase expression compared with another construct, in words” value (comparator as named in the words or parent fragment) was “did not significantly affect the level of luciferase activity”.
“Prm1HΔ^Sp1/Egr1(−6294)*: Prm1HΔ with Sp1/Egr1 element at −6294 mutated (SEQ ID NO:25) (DNA CGAGGAACATGGCCA; expressed or natural sequence; listed as Homo sapiens)” was tested, and the “Decrease in luciferase expression relative to Prm1HΔ (−6320)” value was 1.3 fold.
With “Prm1^GC*^(−7831): Prm1 with GC element at −7831 mutated (SEQ ID NO:15) (DNA TCACTGTCCTCTCATCT; expressed or natural sequence; listed as Homo sapiens)” the “Increase in luciferase activity relative to Prm1 (−8500)” value was 2.1 fold.
In the case of “Prm1I^GC*^(−6206): Prm1I with GC element at −6206 mutated (SEQ ID NO:29) (DNA CAGCGGCCTACACCCGT; expressed or natural sequence; listed as Homo sapiens)”, the “Increase in luciferase activity relative to Prm1I (−6258)” value (5′ deletion or mutation of Prm1I) is reported as 1.3 fold.
In the case of “Prm1D^GC*^(−6717): Prm1D with GC element at −6717 mutated (SEQ ID NO:23) (DNA TCTGTCCTATCACCCCA; expressed or natural sequence; listed as Homo sapiens)”, the “Increase in luciferase expression relative to Prm1D (−6848)” value (5′ deletion or site-directed mutation of Prm1D) is reported as 4.8 fold.
With “Prm1B^Ets(−7870)*: Prm1B with Ets element at −7870 mutated (SEQ ID NO:19) (DNA GACAGGTGAAGTGGGGA; expressed or natural sequence; listed as Homo sapiens)” the “Decrease in luciferase expression relative to Prm1B (−7962)” value was 2.2 fold.
With “Prm1^GC*^(−8345): Prm1 with GC element at −8345 mutated (SEQ ID NO:9) (DNA TGCCCCTGACCCCAC; expressed or natural sequence; listed as Homo sapiens)” the “Increase in luciferase activity relative to Prm1 (−8500)” value was 2.0 fold.
